PubChem BioAssay (NCI)
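1) Cells in 96-well plates. 2) Compound, 48 h, 5 concentrations. 3) Linear interpolation between surrounding doses. 4) Unreached endpoint = highest concentration. TGI: total growth inhibition.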 *1 amine or outer side, *2 acyl side, *3 side chain or, on linkers, in order; H or OH if unused. Where a SMILES comes first, the peptide text is derived from it. Bridges are numbered along the chain shown (N, C = ends). [ ]: non-standard residue; d: D form. The star is where a group is joined. X38 = CC[C@H](C)[C@@H](N[*:1])[C@@H](O)CC(=O)[*:2]; NMeY = CN[C@@H](Cc1ccc(O)cc1)C(=O)O; dNMeL = CN[C@H](CC(C)C)C(=O)O; Hiv = CC(C)[C@H](O)C(=O)O; Pyruvoyl = CC(=O)C(=O)*

Legend:
Test in all cases: DTP human tumour cell line panel, 48 h
HL-60(TB) leukemia = system: HL-60(TB) leukemia
MALME-3M melanoma = system: MALME-3M melanoma
LOX IMVI melanoma = system: LOX IMVI melanoma
OVCAR-3 ovarian = system: OVCAR-3 ovarian
RPMI-8226 leukemia = system: RPMI-8226 leukemia
SF-268 CNS = system: SF-268 CNS
MDA-MB-435 = system: MDA-MB-435
MDA-N = system: MDA-N
K-562 leukemia = system: K-562 leukemia
ACHN renal = system: ACHN renal
IGROV1 ovarian = system: IGROV1 ovarian
OVCAR-8 ovarian = system: OVCAR-8 ovarian
U251 CNS = system: U251 CNS
SR leukemia = system: SR leukemia
COLO 205 colon = system: COLO 205 colon
A549 NSCLC = system: A549 NSCLC
SK-MEL-5 melanoma = system: SK-MEL-5 melanoma
SNB-75 CNS = system: SNB-75 CNS
SK-MEL-2 melanoma = system: SK-MEL-2 melanoma

SMILES | TGI (HL-60(TB) leukemia) | TGI (MALME-3M melanoma) | TGI (LOX IMVI melanoma) | TGI (OVCAR-3 ovarian) | TGI (RPMI-8226 leukemia) | TGI (SF-268 CNS) | TGI (MDA-MB-435) | TGI (MDA-N) | TGI (K-562 leukemia) | TGI (ACHN renal) | TGI (IGROV1 ovarian) | TGI (OVCAR-8 ovarian) | TGI (U251 CNS) | TGI (SR leukemia) | TGI (COLO 205 colon) | TGI (A549 NSCLC) | TGI (SK-MEL-5 melanoma) | TGI (SNB-75 CNS) | TGI (SK-MEL-2 melanoma)
CCOC(=O)c1nc2ccc(C(F)(F)F)cc2nc1NCc1ccc(Cl)c(Cl)c1 | > 100 µM | 99.1 µM | > 100 µM | 66.2 µM | > 100 µM | > 100 µM | 56.7 µM | > 100 µM | > 100 µM | 68 µM | 55.4 µM | > 100 µM | > 100 µM | > 100 µM | > 100 µM | > 100 µM | > 100 µM | 51.3 µM | > 100 µM
NC(=O)c1cc2ccccc2oc1=Nc1ccccc1 | > 100 µM | > 100 µM | > 100 µM | > 100 µM | > 100 µM | > 100 µM | > 100 µM | > 100 µM | > 100 µM | > 100 µM | > 100 µM | > 100 µM | > 100 µM | > 100 µM | > 100 µM | > 100 µM | > 100 µM | > 100 µM | > 100 µM
Clc1cccc(Cl)c1C=NC12CC3CC(CC(C3)C1)C2 | > 10 µM | > 10 µM | > 10 µM | > 10 µM | > 10 µM | > 10 µM | > 10 µM | > 10 µM | > 10 µM | > 10 µM | > 10 µM | > 10 µM | > 10 µM | > 10 µM | > 10 µM | > 10 µM | > 10 µM | > 10 µM | > 10 µM
CC[C@H](C)[C@H]1NC(=O)[C@@H](NC(=O)[C@@H](CC(C)C)N(C)C(=O)[C@@H]2CCCN2C(=O)C(C)=O)[C@@H](C)OC(=O)[C@H](Cc2ccc(OC)cc2)N(C)C(=O)[C@@H]2CCCN2C(=O)[C@H](CC(C)C)NC(=O)[C@H](C(C)C)OC(=O)C[C@@H]1O (Pyruvoyl-P[dNMeL]T[X38][Hiv]LP[NMeY](Me); ester 3-C) | 0.187 µM | 0.107 µM | 0.0481 µM | 0.0532 µM | 0.0465 µM | 0.0983 µM | 0.158 µM | 0.14 µM | 0.104 µM | 0.438 µM | 1.19 µM | 0.342 µM | 0.154 µM | 0.607 µM | 0.00621 µM | 0.0618 µM | 0.0102 µM | 0.0101 µM | 0.0255 µM
O=S1(=O)c2cnccc2NC(=NCc2cccc3ccccc23)N1c1ccccc1 | > 53.7 µM | > 100 µM | > 100 µM | > 100 µM | > 76.6 µM | > 100 µM | > 100 µM | 26.9 µM | > 100 µM | > 100 µM | > 100 µM | > 100 µM | > 100 µM | > 100 µM | > 100 µM | > 100 µM | > 100 µM | > 100 µM | > 30.5 µM
CC1(C)C(=O)N(O)C(C)(C)N1O | > 10 µM | > 10 µM | > 10 µM | > 10 µM | > 10 µM | > 10 µM | > 10 µM | > 10 µM | > 10 µM | > 10 µM | > 10 µM | > 10 µM | > 10 µM | > 10 µM | > 10 µM | > 10 µM | > 10 µM | > 10 µM | > 10 µM
Cc1c2cnccc2c(C)c2c1[nH]c1ccc(O)cc12 | 2.98 µM | 8.28 µM | 1.71 µM | 3.91 µM | > 10 µM | > 10 µM | 8.73 µM | > 10 µM | > 10 µM | 8.29 µM | > 10 µM | 3.41 µM | > 10 µM | 2.88 µM | > 10 µM | > 10 µM | > 10 µM | 8.09 µM | > 10 µM
C=C1C(=O)C([Si](C)(C)C)=C2C=C(C)C3(CC3)C12C (stereo not drawn) | 34.8 µM | 78.7 µM | 89 µM | > 100 µM | 15.3 µM | > 100 µM | 64.3 µM | > 100 µM | 54.1 µM | > 100 µM | > 100 µM | > 100 µM | > 100 µM | 11.7 µM | 36.4 µM | > 100 µM | > 100 µM | – | 61.1 µM
NC(=O)C(Nc1c(Cl)cccc1Cl)c1cc2cc(Br)ccc2nc1Cl (stereo not drawn) | > 100 µM | > 100 µM | > 100 µM | > 100 µM | > 100 µM | > 100 µM | 49.9 µM | > 100 µM | > 100 µM | > 100 µM | > 100 µM | > 100 µM | – | 56.5 µM | > 100 µM | > 100 µM | > 100 µM | > 100 µM | > 100 µM
NCCCCNCCCN1CC1 | 5.32 µM | > 91.9 µM | 3.46 µM | 8.98 µM | > 100 µM | > 100 µM | > 94.6 µM | > 100 µM | > 26.4 µM | – | > 21.5 µM | – | 28.9 µM | 52.9 µM | 3.71 µM | > 100 µM | 9.67 µM | 1.92 µM | –
O=C1NC(N2CCOCC2)=N/C1=C\c1cccs1 | > 100 µM | > 100 µM | > 100 µM | > 100 µM | > 100 µM | > 100 µM | > 100 µM | > 100 µM | – | > 100 µM | > 100 µM | > 100 µM | > 100 µM | > 100 µM | > 100 µM | > 100 µM | > 100 µM | > 100 µM | > 100 µM
COc1ccccc1C1CC(=O)CC(c2ccccc2OC)C12C(=O)NC(=S)NC2=O (stereo not drawn) | 69.5 µM | > 100 µM | > 100 µM | > 100 µM | 52.7 µM | > 100 µM | 94.3 µM | 52.5 µM | > 100 µM | > 100 µM | > 100 µM | > 100 µM | > 100 µM | > 100 µM | > 100 µM | – | > 100 µM | > 100 µM | > 100 µM
O=c1[nH]c(=O)n(C2OC(CO)C(O)C(F)C2O)cc1F (stereo not drawn) | > 100 µM | > 100 µM | > 100 µM | > 100 µM | > 100 µM | > 100 µM | > 100 µM | > 100 µM | > 100 µM | > 100 µM | – | > 100 µM | > 100 µM | 76.4 µM | > 100 µM | > 100 µM | > 100 µM | – | > 100 µM
